Laboratory results: ChEMBL document CHEMBL3779893, “Identification of novel GLUT inhibitors” (Bioorg Med Chem Lett, 2016)

Experiments:
[1] = Efflux ratio of apparent permeability from basolateral to apical side over apical to basolateral side in human Caco2 cells; assay type: ADME, cell-based; details: Caco-2
[2] = target: T1, Solute carrier family 2, facilitated glucose transporter member 2 (Homo sapiens, UniProt P11168); assay: Inhibition of human GLUT2 expressed in CHO cells assessed as ATP production co-incubated with 30 mM fructose for 16 hrs by CellTiter-Glo assay in presence of oxidative phosphorylation inhibitor rotenone; assay type: cell-based
T1 sequence (P11168 whole entry): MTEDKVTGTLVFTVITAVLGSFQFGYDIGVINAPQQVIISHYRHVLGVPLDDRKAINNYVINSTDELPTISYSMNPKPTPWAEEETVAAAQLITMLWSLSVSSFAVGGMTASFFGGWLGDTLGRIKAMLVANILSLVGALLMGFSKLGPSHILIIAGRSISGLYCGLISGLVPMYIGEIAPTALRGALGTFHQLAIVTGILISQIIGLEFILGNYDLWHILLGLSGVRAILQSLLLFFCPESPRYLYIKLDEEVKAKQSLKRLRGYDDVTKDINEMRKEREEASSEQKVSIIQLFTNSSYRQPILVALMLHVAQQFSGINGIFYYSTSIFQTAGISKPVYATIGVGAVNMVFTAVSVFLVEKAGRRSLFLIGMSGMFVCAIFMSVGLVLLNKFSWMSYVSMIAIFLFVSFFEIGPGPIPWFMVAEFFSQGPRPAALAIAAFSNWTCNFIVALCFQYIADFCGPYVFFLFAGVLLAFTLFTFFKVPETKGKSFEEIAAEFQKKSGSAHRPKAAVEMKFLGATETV

[3] = Intrinsic clearance in rat hepatocytes; assay type: ADME, cell-based, Hepatocyte; details: read-out: CLH (converted)
[4] = target: T2, Solute carrier family 2, facilitated glucose transporter member 3 (Homo sapiens, UniProt P11169); assay: Inhibition of human GLUT3 expressed in GLUT1 knock-out DLD1 cells assessed as ATP production co-incubated with 300 mM glucose for 16 hrs by CellTiter-Glo assay in presence of oxidative phosphorylation inhibitor rotenone; assay type: cell-based, DLD-1
T2 sequence (P11169 whole entry): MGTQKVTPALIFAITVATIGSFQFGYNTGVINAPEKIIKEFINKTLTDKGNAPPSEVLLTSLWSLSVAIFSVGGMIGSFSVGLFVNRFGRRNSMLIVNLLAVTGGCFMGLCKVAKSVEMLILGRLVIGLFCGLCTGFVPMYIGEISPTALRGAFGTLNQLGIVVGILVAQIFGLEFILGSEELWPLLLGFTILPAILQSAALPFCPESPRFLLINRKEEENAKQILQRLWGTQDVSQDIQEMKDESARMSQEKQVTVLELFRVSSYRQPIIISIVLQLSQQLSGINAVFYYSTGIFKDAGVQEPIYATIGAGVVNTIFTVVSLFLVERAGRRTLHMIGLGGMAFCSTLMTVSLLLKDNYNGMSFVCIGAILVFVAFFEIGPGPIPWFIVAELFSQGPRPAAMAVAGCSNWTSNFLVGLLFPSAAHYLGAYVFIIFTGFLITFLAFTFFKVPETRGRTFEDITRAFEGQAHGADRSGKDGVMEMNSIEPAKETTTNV

[5] = target: T3, Solute carrier family 2, facilitated glucose transporter member 1 (Homo sapiens, UniProt P11166); assay: Inhibition of human GLUT1 expressed in DLD1 cells assessed as ATP production co-incubated with 100 mM glucose for 16 hrs by CellTiter-Glo assay in presence of oxidative phosphorylation inhibitor rotenone; assay type: cell-based, DLD-1
T3 sequence (P11166 whole entry): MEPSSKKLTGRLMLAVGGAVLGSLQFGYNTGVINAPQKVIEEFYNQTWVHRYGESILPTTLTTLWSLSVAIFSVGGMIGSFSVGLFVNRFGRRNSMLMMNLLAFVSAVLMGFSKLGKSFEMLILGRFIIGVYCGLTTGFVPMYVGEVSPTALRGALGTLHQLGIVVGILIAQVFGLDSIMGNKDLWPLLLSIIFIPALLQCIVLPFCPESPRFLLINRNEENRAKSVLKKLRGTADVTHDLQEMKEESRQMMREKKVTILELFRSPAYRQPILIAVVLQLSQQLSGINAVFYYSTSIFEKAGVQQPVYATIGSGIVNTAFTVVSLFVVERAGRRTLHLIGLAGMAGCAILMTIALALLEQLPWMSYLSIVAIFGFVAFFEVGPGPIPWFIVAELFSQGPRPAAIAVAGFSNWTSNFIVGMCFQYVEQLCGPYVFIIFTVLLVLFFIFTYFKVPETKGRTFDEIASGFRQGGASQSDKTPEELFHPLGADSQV

[6] = Intrinsic clearance in human liver microsomes; assay type: ADME; details: read-out: CLH (converted)
[7] = Apparent permeability from apical to basolateral side in human Caco2 cells at 2 uM after 2 hrs; assay type: ADME, cell-based; details: Caco-2
[8] = Intrinsic clearance in rat liver microsomes; assay type: ADME; details: read-out: CLH (converted)
[9] = Intrinsic clearance in mouse liver microsomes; assay type: ADME; details: read-out: CLH (converted)
[10] = Intrinsic clearance in human hepatocytes; assay type: ADME, cell-based, Hepatocyte; details: read-out: CLH (converted)
[11] = Oral bioavailability in Wistar rat at 5 mg/kg; assay type: ADME, organism-based; details: in vivo
[12] = Terminal half life in Wistar rat at 0.3 mg/kg, iv and 5 mg/kg, po; assay type: ADME, organism-based; details: in vivo, read-out: beta t1/2 (converted)
[13] = Cmax in Wistar rat at 5 mg/kg, po; assay type: ADME, organism-based; parameters: dose 5 mg/kg, route oral; details: in vivo
[14] = Blood clearance in Wistar rat at 0.3 mg/kg, iv and 5 mg/kg, po; assay type: ADME, organism-based; details: whole blood
[15] = Volume of distribution at steady state in Wistar rat at 0.3 mg/kg, iv and 5 mg/kg, po; assay type: ADME, organism-based; details: in vivo, read-out: Vdss

| SMILES | efflux ratio [1] | IC50 [2] | CLint scaled [3] | IC50 [4] | IC50 [5] | CLint scaled [6] | Papp A→B at 2 h, 2 µM [7] | CLint scaled [8] | CLint scaled [9] | CLint scaled [10] | bioavailability [11] | half-life [12] | Cmax [13] | clearance [14] | Vd [15] |
| --- | --- | --- | --- | --- | --- | --- | --- | --- | --- | --- | --- | --- | --- | --- | --- |
| COc1ccccc1N1CCN(c2ncnc3c2cnn3C2CCCC2)CC1 | 0.33 | 2000 nM | 61.7 mL/min/kg | 120 nM | 40 nM | 13.8 mL/min/kg | 15.3 ×10⁻⁶ cm/s | – | – | – | – | – | – | – | – |
| COc1ccccc1N1CCN(c2ncnc3c2cnn3-c2ccccc2)CC1 | 0.29 | > 10000 nM | 45 mL/min/kg | 250 nM | 25 nM | 2.33 mL/min/kg | 5.9 ×10⁻⁶ cm/s | 36.7 mL/min/kg | 38.3 mL/min/kg | 14 mL/min/kg | – | – | – | – | – |
| COc1ccccc1N1CCN(c2ncnc3c2cnn3-c2ccccc2F)CC1 | 0.42 | 1100 nM | 36.7 mL/min/kg | 40 nM | 7 nM | 8.33 mL/min/kg | 17.5 ×10⁻⁶ cm/s | – | 28.3 mL/min/kg | 13.2 mL/min/kg | 67% | 2.7 h | 1700 nM | 20 mL/min/kg | 1.9 L/kg |
| COc1ccccc1N1CCN(c2ncnc3c2cnn3-c2cccc(F)c2)CC1 | – | > 10000 nM | – | 120 nM | 35 nM | 9.17 mL/min/kg | – | – | 31.7 mL/min/kg | – | – | – | – | – | – |
